# Measured values taken from patent publication US20220370450A1, “CONTROLLED-RELEASE COMPOSITION FOR ORAL ADMINISTRATION COMPRISING COMPLEX OF ALPHA ADRENERGIC BLOCKER COMPOUND AND CLAY MINERAL” (Korea Institute Of Geoscience And Mineral Resources, priority 2019, published 2022).
# Tests used:
# [1] = Drug release experiment using a semi-permeable membrane; format: physicochemical; conditions: for elution rate: in both pH 1.2 and 7.8; for time within which most of the drug was released / drug released within initial 1 hour: semi-permeable membrane bag, cut-off 12,000 to 14,000 Da, 37° C.; for drug released within initial 1 hour: eluate pH 1.2 or pH 7.8; for release rate (membrane release amount of drug per unit time) of the drug solution relative to the drug-bentonite complex dispersion solution: semi-permeable membrane cut-off 12,000 to 14,000 Da
# Protocol: The amount of the drug-bentonite complex was adjusted so that the drug final concentration inside the elution system became 1 μg/ml. At this time, as the eluate, a 0.1 N hydrochloric acid solution of pH 1.2 and a phosphate buffer of pH 7.8 were used and the elution was performed while maintaining 37° C. While the eluate outside the semi-permeable membrane was partially taken by time and the same amount of eluate was compensated, the experiment was conducted, and the drug concentration of the taken sample was analyzed using high performance liquid chromatography.
# [2] = rat, in vivo, po, 1 mg/kg
# Protocol: (§1) The breeding conditions of the experimental animals were as follows.
# (§2) After the femoral region of the fixed rat was shaved, the blood-gathering was prepared by injecting a cannula. A drug-bentonite complex dispersion solution as an experimental group and a drug aqueous solution as a control group were administered using an oral zonde and then a certain amount of plasma was collected through the cannula for each predetermined time and the plasma drug concentration was measured.
# (§3) The drug concentrations in the plasma samples were analyzed using a mass spectrometer.
# in vivo = conditions: Sprague-Dawley, rat, po, 1 mg/kg
# Protocol: as §1, §2, §3
release amount of the drug solution relative to the complex dispersion solution ([1]; after 4 hours of the test),elution rate [1],time within which most of the drug was released [1],drug released within initial 1 hour [1],release rate (membrane release amount of drug per unit time) of the drug solution relative to the drug-bentonite complex dispersion solution [1],time within which the plasma concentration reached the maximum plasma concentration (Cmax) [2],AUC(0-t) (in vivo),Cmax (in vivo),Tmax (in vivo),bioavailability (in vivo),"release amount of the drug solution relative to the complex dispersion solution ([1]; after 2 hours of the test, pH 1.2)","release amount of the drug solution relative to the complex dispersion solution ([1]; after 2 hours of the test, pH 7.8)",Structure (SMILES)
two times larger,fast elution rate,≤ 4 h,≥ 50%,two times larger,30 to 60 min,186 ± 54.7 ng·h/mL,67.3 ± 14.2 ng/mL,45 ± 15 min,100%,,,"COc1cc2nc(N3CCN(C(=O)C4COc5ccccc5O4)CC3)nc(N)c2cc1OC (centres unmarked) [Doxazosin, doxazosin]"
,fast elution rate,≤ 4 h,≥ 70%,larger,,247 ± 45.1 ng·h/mL,129 ± 36.2 ng/mL,22.8 ± 7.8 min,100%,two times larger,significantly larger,"COc1cc2nc(N3CCN(C(=O)c4ccco4)CC3)nc(N)c2cc1OC [Prazosin, prazosin]"
